Source: US11337982B2, “Combined treatment with a TLR7 agonist and an HBV capsid assembly inhibitor” (Hoffmann-La Roche Inc., priority 2016, dated 2022)
Values belong to the molecule of their own block, whether it stands above or below them.

Experiments:
AAV-HBV = AAV-HBV mouse model, serum HBV biomarkers; format: in vivo; settings: Compound 5 20 mg/kg QD, p.o., after 42 days of treatment
From the text: 4-week old male C57BL/6 mice, specific pathogen free, were purchased from Shanghai Laboratory Animal Center of Chinese Academy of Sciences (SLAC) and housed in an animal care facility in individually ventilated cages under controlled temperature and light conditions following the Institutional Animal Care guidelines. AAV-HBV virus was purchased from Beijing FivePlus Molecular Medicine Institute (Beijing, China). This recombinant virus carries 1.3 copies of the HBV genome, which was packaged in AAV serotype 8 (AAV8) capsids. C57BL/6 mice were injected with 200 μL of recombinant virus, diluted in saline buffer, through tail vein injection. After 3-4 weeks, animals were bled to monitor HBV genomic DNA and surface antigen (HBsAg) in serum, and then were randomly grouped according to these HBV biomarkers.
Serum HBsAg was measured using CLIA kits (Autobio Diagnostics Co., Ltd, Zhengzhou, China) according to the manufacturer's instructions. The lower limit of detection (LLOQ) for HBsAg was 0.05 IU/mL. 500-fold dilution of serum was used to obtain values within the linear range of standard curves. Serum HBV DNA was extracted using a MagNA Pure 96 DNA and Viral NA Small Volume Kit (Roche) following the manufacturer's instructions. The DNA samples were analyzed by real-time quantitative PCR (qPCR) using a HBV-specific primer and probe set for specific amplification and detection of a 128 bp HBV genome region from the nucleotide 2969 to 3096. The sequences of the primers and probe are shown as follows: […]
Anti-HBs antibody was examined in mouse serum using the anti-HBs CLIA kit (Antobio, Zhengzhou, China) according to the manufacturer's instruction with modification. ˜15 μL of the diluted (1:3) mouse serum samples were thawed at room temperature for 10 mins. 6 μL of sample was further diluted in 30 μL of PBS to make the final dilution 1:18 for the antibody test. Standard curve were prepared with monoclonal mouse antibody Anti-Hepatitis B Virus Surface Antigen (Ad/Ay) antibody [S35] (Abcam ab20402) in diluted Naive mouse serum (1:18 dilution in PBS). 1 μL of 1 mg/ml anti-HBs antibody was added into 500 μL of diluted mouse serum to make standard 1 as final concentration 2000 ng/ml. 50 μL of standard 1 then was added into 150 μL of diluted mouse serum to make standard 2 (1:4 dilution). 7 points standards were required for the test. The final concentration of standard 7 was (0.488 ng/ml). Blank serum was used as background control. 25 μL of diluted serum sample/standards/Blank was transferred into 96-well plate. Samples were incubated at room temperature for 1 hour followed by 3 times washing with 300 μL of PBST. 0.5 mg/ml of Goat anti-mouse IgG Biotinylated (Mabtech 3825-6-250) was diluted into PBS to final concentration 1 μg/ml (1:500 dilution). […] anti-mouse IgG Bio was added into plate, incubated at room temperature for 1 hour followed by 3 times washing with 300 μL of PBST. Streptavidin-HRP (Mabtech 3310-9) was diluted into PBS (1:250). 50 μL of diluted Streptavidin-HRP was incubated at room temperature for 1 hour followed by 3 times washing with 300 μL of PBST. Substrate A and substrate B (AntuBio) were mixed. 50 μL of mixture were added into plated and incubated for 10 mins before subjected to luminescence reading with Envision microplate reader. The lower limit of detection for anti HBsAb was 36 ng/mL. The anti HBsAb results were calculated from Luminescence raw data fitting on the anti HBsAb standard curve by SoftMax Pro (v5.4.1) software.
In Group 01, animals were treated with Vehicle every other day (QOD) for 42 days and served as the placebo control. In Group 02, Compound 4 was dosed once weekly (QW) at 10 mg/kg for 42 days. Compound 5 was dosed once daily (QD) at 20 mg/kg for 42 days alone in Group 03, or in combination with 10 mg/kg of Compound 4 QW in Group 04. All the test articles were administered by oral gavage (PO) with a total dose volume of 10 mL/kg. The 42-day treatment was followed by a 42-day off-treatment period. […]

human TLR7 = target: T1, human TLR7 (Homo sapiens, UniProt Q9NYK1); assay: HEK293-Blue-hTLR-7 cells assay (SEAP reporter); format: cell-based; settings: active moiety; read-out: potency to active TLR7 in HEK293-hTLR7 assay
T1 sequence (Q9NYK1 27-1049): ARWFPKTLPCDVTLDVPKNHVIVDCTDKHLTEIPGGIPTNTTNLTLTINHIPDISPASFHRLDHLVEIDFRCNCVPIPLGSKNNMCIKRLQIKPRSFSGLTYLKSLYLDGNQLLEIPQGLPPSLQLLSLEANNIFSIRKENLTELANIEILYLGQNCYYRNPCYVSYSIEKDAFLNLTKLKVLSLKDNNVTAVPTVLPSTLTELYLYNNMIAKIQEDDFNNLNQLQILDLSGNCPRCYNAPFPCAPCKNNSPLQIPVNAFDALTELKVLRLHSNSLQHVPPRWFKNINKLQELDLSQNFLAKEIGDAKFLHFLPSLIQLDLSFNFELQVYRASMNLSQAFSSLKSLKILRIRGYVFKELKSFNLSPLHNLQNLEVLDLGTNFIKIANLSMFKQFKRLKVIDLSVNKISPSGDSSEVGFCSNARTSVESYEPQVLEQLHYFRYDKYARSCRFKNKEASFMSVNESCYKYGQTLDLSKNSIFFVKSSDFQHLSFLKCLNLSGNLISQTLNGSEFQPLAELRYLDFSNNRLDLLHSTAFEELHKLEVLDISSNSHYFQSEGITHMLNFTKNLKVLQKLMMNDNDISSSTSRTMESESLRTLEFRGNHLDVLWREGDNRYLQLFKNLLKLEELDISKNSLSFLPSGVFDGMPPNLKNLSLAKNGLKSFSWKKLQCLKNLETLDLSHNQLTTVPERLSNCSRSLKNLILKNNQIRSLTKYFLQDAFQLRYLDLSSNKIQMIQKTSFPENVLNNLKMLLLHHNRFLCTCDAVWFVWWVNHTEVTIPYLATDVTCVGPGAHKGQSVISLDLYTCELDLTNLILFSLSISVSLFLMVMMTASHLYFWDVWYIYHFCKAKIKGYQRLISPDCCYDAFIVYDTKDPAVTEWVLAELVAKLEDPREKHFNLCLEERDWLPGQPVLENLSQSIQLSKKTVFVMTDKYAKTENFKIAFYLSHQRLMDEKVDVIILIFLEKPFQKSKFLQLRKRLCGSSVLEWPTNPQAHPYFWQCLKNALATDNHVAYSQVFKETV
From the text: HEK293-Blue-hTLR-7 Cells Assay:
A stable HEK293-Blue-hTLR-7 cell line was purchased from InvivoGen (Cat.#: hkb-htlr7, San Diego, Calif., USA). These cells were designed for studying the stimulation of human TLR7 by monitoring the activation of NF-κB. A reporter gene of secreted embryonic alkaline phosphatase (SEAP) was placed under the control of the IFN-β[…]minimal promoter fused to five NF-κB and AP-1-binding sites. SEAP was induced by the activation of NF-κB and AP-1 upon stimulating HEK-Blue hTLR7 cells with TLR7 ligands. SEAP activity in cell culture supernatant was determined using QUANTI-Blue™ kit (Cat.#: rep-qb1, Invivogen, San Diego, Calif., USA) at a wavelength of 640 nm. Such reporter assays have been widely used for evaluation of TLR7 agonism (Tsuneyasu Kaisho and Takashi Tanaka, Trends in Immunology, Volume 29, Issue 7, July 2008, […]; Hiroaki Hemmi et al, Nature Immunology 3, 196-200 (2002).
Specifically, HEK293-Blue-hTLR7 cells were incubated at a density of 250,000˜450,000 cells/mL in a volume of 180 μL in a 96-well plate in Dulbecco's Modified Eagle's medium (DMEM) containing 4.5 g/L glucose, 50 U/mL penicillin, […], […], 2 mM L-glutamine, 10% (v/v) heat-inactivated fetal bovine serum for 24 h. The cells were then incubated with 20 μL of test compound in a serial dilution at 37° C. in a CO2 incubator for 20 hours. Then 20 μL of the supernatant from each well was incubated with 180 μL Quanti-blue substrate solution at 37° C. for 2 hours and the absorbance was measured at 620˜655 nm using a spectrophotometer.

[1] = Conversion of prodrug into active moiety
HBV = HBV infected transgenic mouse or humanized mouse models; cited from earlier work
[2] = Example 5, Compound 4 10 mg/kg QW
[3] = Example 6, Compound 3 1 mg/kg QOW

SMILES: CCOC(=O)C1=C(CN2CCN3C(=O)N(CC(C)(C)C(=O)O)C[C@@H]3C2)NC(c2nccs2)=N[C@H]1c1cccc(F)c1C [Compound 5, 3-[(8aS)-7-[[(4S)-5-ethoxycarbonyl-4-(3-fluoro-2-methyl-phenyl)-2-thiazol-2-yl-1,4-dihydropyrimidin-6-yl]methyl]-3-oxo-5,6,8,8a-tetrahydro-1H-imidazo[1,5-a]pyrazin-2-yl]-2,2-dimethyl-propanoic acid]
HBV DNA reduction (AAV-HBV; [2]): significant reduction
HBsAg reduction (AAV-HBV; [2]): significant reduction
HBV DNA reduction (AAV-HBV; [3]): significant reduction
HBsAg reduction (AAV-HBV; [3]): significant reduction

EC50 (human TLR7): 85 nM
SMILES: CC[S@@](=N)(=O)c1nc(N)c2[nH]c(=O)n(Cc3ccc(Cl)cc3)c2n1 [Compound 1e-B]

EC50 (human TLR7): 71 nM
SMILES: CC[S@](=N)(=O)c1nc(N)c2[nH]c(=O)n(Cc3ccc(Cl)cc3)c2n1 (single isomer, unassigned) [Compound 1e-A]

conversion of prodrug into the active moiety [1]: efficiently converted
SMILES: CCCN(C)C(=O)n1c(=O)n(Cc2ccc(Cl)cc2)c2nc([S@@](=N)(=O)CC)nc(N)c21 [Compound 1, 6-Amino-9-[(4-chlorophenyl)methyl]-2-[S(S)-ethylsulfonimidoyl]-N-methyl-8-oxo-N-propyl-purine-7-carboxamide]

SMILES: COC(=O)C1=C(C)NC(c2ncc(F)cc2F)=N[C@H]1c1ccc(F)cc1Cl [Bay 41-4109]
in vivo efficacy, HBV DNA (HBV): in vivo efficacy with HBV DNA reduction

SMILES: CCN(C)C(=O)n1c(=O)n(Cc2ccc(Cl)cc2)c2nc([S@@](=N)(=O)CC)nc(N)c21 [Compound 3, 6-Amino-9-[(4-chlorophenyl)methyl]-N-ethyl-2-[S(S)-(ethylsulfonimidoyl)]-N-methyl-8-oxo-purine-7-carboxamide]
conversion of prodrug into the active moiety [1]: efficiently converted
HBV DNA reduction (AAV-HBV; [3]): significant reduction
HBsAg reduction (AAV-HBV; [3]): significant reduction

EC50 (human TLR7): 110 nM
SMILES: CC[S@@](=N)(=O)c1nc(N)c2[nH]c(=O)n(Cc3ccc(C)cc3)c2n1 [Compound 4f-A, 6-amino-2-(S(R)-ethylsulfonimidoyl)-9-(p-tolylmethyl)-7H-purin-8-one]

conversion of prodrug into the active moiety [1]: efficiently converted
SMILES: CCCN(C)C(=O)n1c(=O)n(Cc2ccc(Cl)cc2)c2nc([S@](=N)(=O)CC)nc(N)c21 [Compound 2, 6-amino-9-[(4-chlorophenyl)methyl]-2-[S(R)-ethylsulfonimidoyl]-N-methyl-8-oxo-N-propyl-purine-7-carboxamide]

SMILES: CCCN(C)C(=O)n1c(=O)n(Cc2ccc(C)cc2)c2nc([S@](=N)(=O)CC)nc(N)c21 [Compound 4, 6-Amino-2-[S(R)-(ethylsulfonimidoyl)]-N-methyl-8-oxo-N-propyl-9-(p-tolylmethyl)purine-7-carboxamide]
conversion of prodrug into the active moiety [1]: efficiently converted
HBV DNA reduction (AAV-HBV; [2]): significant reduction
HBsAg reduction (AAV-HBV; [2]): significant reduction
